# Experimental data published in patent publication US20090048328A1, “Compound Comprising Prodigiosin From Serratia Macescence B-1231 Kctc 0386Bp for Prevention and Treatment of Acute Graft-Versus-Host Disease” (priority 2005, published 2009).
# Entries after “also recorded” stand apart in the source; their conditions may differ.
# Assays:
# [1] = system: IL-2 receptors (IL-2R alpha); assay: Expression of IL-2 receptor (IL-2R alpha) mRNA in ConA-activated T-cells, RT-PCR; assay type: cell-based, C57BL/6 mouse; details: 1 μg/ml ConA, 4 hours, 3, 10, 30 ng/ml compound
# B-cells = assay: Lipopolysaccharide-induced B-cell proliferation, [3H]-thymidine incorporation; assay type: cell-based, C57BL/6 mouse; details: 1 μg/ml lipopolysaccharide; 3, 10, 30 ng/ml compound
# Method: (§1) T-cells were separated from the spleen of the C57BL/6 mouse for the experiment. 1 μg/ml concanavalin A (ConA) was used to generate the proliferation of T-cells, and 1 μg/ml lypopolysaccaride induced proliferation of the B-cells. The prodigiosin separated in Execution Example 1 was melted in dimethyl sulfoxide (DMSO) and was added to the culture medium in a manner to achieve a final concentration of 3, 10, 30 ng/ml. After 60 hours of cultivation, [^3H]-thymidine was added to the culture medium with a concentration of 1 μCi/well. After 12 hours, the cells were collected and the amount of radioactivity in the DNA was measured.
# T-cells [2] = assay: ConA-induced T-cell proliferation, [3H]-thymidine incorporation; assay type: cell-based, C57BL/6 mouse; details: 1 μg/ml ConA; 3, 10, 30 ng/ml compound
# Method: as §1
# T-cells were separated from the spleen of the C57BL/6 mouse for the experiment. 1 μg/ml ConA and 10 unit/ml IL-2 were used to generate the proliferation of T-cells. In the control group, 1 μg/ml ConA induced the proliferation of T-cells. […] After 12 hours, the cells were collected and the amount of radioactivity in the DNA was measured.
# T-cells were separated from the spleen of the C57BL/6 mouse for the experiment. […] After 12 hours, the cells were collected and the amount of radioactivity in the DNA was measured. […]
# Prodigiosin was melted in DMSO and added to the culture medium in a manner to achieve a final concentration of 3, 10, 30 ng/ml. […] After 12 hours, the cells were collected and the amount of radioactivity in the DNA was measured. […]
# T-cells [3] = assay: T-cell proliferation induced by ConA plus added IL-2, [3H]-thymidine incorporation; assay type: cell-based, C57BL/6 mouse; details: 1 μg/ml ConA and 10 unit/ml IL-2; 3, 10, 30 ng/ml compound
# Method: T-cells were separated from the spleen of the C57BL/6 mouse for the experiment. 1 μg/ml ConA and 10 unit/ml IL-2 were used to generate the proliferation of T-cells. In the control group, 1 μg/ml ConA induced the proliferation of T-cells. Prodigiosin was melted in DMSO and added to the culture medium in a manner to achieve a final concentration of 3, 10, 30 ng/ml. After 60 hours of cultivation, [^3H]-thymidine was added to the culture medium with a concentration of 1 μCi/well. After 12 hours, the cells were collected and the amount of radioactivity in the DNA was measured.
# T-cells were separated from the spleen of the C57BL/6 mouse for the experiment. 1 μg/ml ConA and 10 unit/ml IL-2 were used to generate the proliferation of T-cells. In the control group, 1 μg/ml ConA induced the proliferation of T-cells. […] After 60 hours of cultivation, [^3H]-thymidine was added to the culture medium with a concentration of 1 μCi/well. After 12 hours, the cells were collected and the amount of radioactivity in the DNA was measured.
# IL-2 mRNA = assay: Expression of IL-2 mRNA in ConA-activated T-cells, RT-PCR; assay type: cell-based, C57BL/6 mouse; details: 1 μg/ml ConA, 4 hours, 3, 10, 30 ng/ml compound
# Method: T-cells were separated from the spleen of the C57BL/6 mouse for the experiment. 1 μg/m ConA was used to activate the T-cells. […]. After 4 hours of cultivation, the cells were collected. After separating the RNA from the cells, the degree of expression of IL-2 mRNA was measured through RT-PCR (reverse transcription-polymerase chain reaction).
# [4] = system: acute graft-versus-host disease; assay type: in vivo, Balb/c mouse; details: 1 mg/kg, peritoneal injections every other day; weight loss from 2nd to 6th day, regain from 7th day; control mice lost weight up to 9th day and died
# Text: (§2) To induce acute graft-versus-host disease, bone marrow cells (5×10^7 cells) and spleen cells (1×10^7 cells) of the C57BL/6 mouse were transplanted to the Balb/c mouse, which had been irradiated and had lost immune function.
# IL-2 dependent T-cells = assay: IL-2-dependent T-cell proliferation (ConA pre-treated cells), [3H]-thymidine incorporation; assay type: cell-based, C57BL/6 mouse; details: cells pre-treated with 1 μg/ml ConA 48 hours, washed, 10 unit/ml IL-2; 3, 10, 30 ng/ml compound
# Method: In order to measure IL-2 dependent T-cell proliferation, T-cells separated from the spleen of the mouse were treated with 1 μg/ml ConA for 48 hours. Then, the cells were washed three times to get rid of all ConA for further experiment. […] 10 unit/ml IL-2 was added to the pre-treated cells to induce T-cell proliferation (IL-2-dependent T cell proliferation).
# Prodigiosin was melted in DMSO and added to the culture medium in a manner to achieve a final concentration of 3, 10, 30 ng/ml. After 60 hours of cultivation, [^3H]-thymidine was added to the culture medium with a concentration of 1 μCi/well. After 12 hours, the cells were collected and the amount of radioactivity in the DNA was measured.
# In order to measure IL-2 dependent T-cell proliferation, T-cells separated from the spleen of the mouse were treated with 1 μg/ml ConA for 48 hours. Then, the cells were washed three times to get rid of all the ConA for further experiment. […] 10 unit/ml IL-2 was added to the pre-treated cells to induce T-cell proliferation (IL-2-dependent T-cell proliferation).
# After 60 hours of cultivation, [^3H]-thymidine was added to the culture medium with a concentration of 1 μCi/well. After 12 hours, the cells were collected and the amount of radioactivity in the DNA was measured.
# [5] = system: acute graft-versus-host disease; assay: Mouse survival in acute graft-versus-host disease after bone marrow transplantation; assay type: in vivo, Balb/c mouse; details: 1 mg/kg, peritoneal injections every other day
# Text: as §2
smiles,measurement,setting,value
CCCCCC1=C/C(=C/c2[nH]c(-c3ccc[nH]3)cc2OC)N=C1C [prodigiosin],effect on expression of IL-2 receptor mRNA,[1],efficiently suppressed the expression of IL-2 mRNA
same,effect on proliferation of B-cells,B-cells,could not suppress the proliferation of B-cells
same,effect on proliferation of T-cells induced by ConA,T-cells [2],selectively suppressed the proliferation of T-cells; also recorded: suppressed T-cells proliferated by ConA
same,effect of added IL-2 on the suppression of T-cell proliferation,T-cells [3],did not suppress the excessive amount of IL-2 that was added from the outside
same,effect on expression of IL-2 mRNA,IL-2 mRNA,did not influence the expression of IL-2 mRNA
same,changes in weight of the mice,[4],recovered normal weight by the 14th day
same,effect on IL-2-dependent T-cell proliferation,IL-2 dependent T-cells,did not suppress the T-cell proliferation by IL-2
same,Balb/c mice died six days after the cell transplantation,[5]; control group 50% died by day 6,35%
same,mice survived through to the end of the experiment,"[5]; observed for 14 days, all control mice died by the 10th day",65%
